These results are taken from ChEMBL document CHEMBL4725310, “Orally bioavailable HCV NS5A inhibitors of unsymmetrical structural class” (Bioorg Med Chem Lett, 2020).

The target in data set [1] is T1, Nonstructural protein 5A (Hepatitis C virus, UniProt Q5L478).
T1 sequence (Q5L478 whole entry): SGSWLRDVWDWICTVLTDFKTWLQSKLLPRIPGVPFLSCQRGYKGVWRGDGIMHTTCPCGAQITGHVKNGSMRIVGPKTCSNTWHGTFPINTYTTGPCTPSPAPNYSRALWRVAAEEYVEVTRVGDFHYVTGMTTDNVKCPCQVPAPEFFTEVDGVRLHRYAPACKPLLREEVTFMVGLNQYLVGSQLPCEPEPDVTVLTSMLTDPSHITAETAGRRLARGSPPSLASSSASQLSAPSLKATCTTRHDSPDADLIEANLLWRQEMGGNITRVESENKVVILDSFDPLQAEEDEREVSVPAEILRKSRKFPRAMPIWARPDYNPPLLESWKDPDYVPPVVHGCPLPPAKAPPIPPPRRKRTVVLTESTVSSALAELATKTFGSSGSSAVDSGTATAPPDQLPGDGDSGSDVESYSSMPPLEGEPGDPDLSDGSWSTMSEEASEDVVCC
The experiment in a line: Inhibition of Hepatitis C virus 1a NS5A. Further details: species or system Hepatitis C virus subtype 1a.

The target of data set [2] is T1, Nonstructural protein 5A. The experiment in a line: Inhibition of Hepatitis C virus 1b NS5A. Further details: species or system Hepatitis C virus subtype 1b.
The nature of data set [3]: Apparent permeability of compound in human Caco-2 cells. In kind it is ADME, cell-based. A general note: Caco-2 monolayers are a common model of the intestinal barrier.
Data set [4] can be described thus: Solubility of compound in JP 1st fluid at pH 1.2. In kind it is physicochemical.
Data set [5] concerns the target T1, Nonstructural protein 5A. Nature of the data set: Inhibition of Hepatitis C virus 2a NS5A. Further details: species or system Hepatitis C virus subtype 2a.
Data set [6] addresses Nonstructural protein 5A (Hepatitis C virus, UniProt Q5L478, Q30E). Nature of the data set: Inhibition of Hepatitis C virus 1a NS5A Q30E mutant. Further details: species or system Hepatitis C virus subtype 1a.
The target of data set [7] is T1, Nonstructural protein 5A. The experiment in a line: Inhibition of Hepatitis C virus 3a NS5A. Further details: species or system Hepatitis C virus subtype 3a.
The target of data set [8] is T1, Nonstructural protein 5A. Nature of the data set: Inhibition of Hepatitis C virus 1a H77 NS5A. Set-up: species or system Hepatitis C virus subtype 1a.
Data set [9] is described as follows: Inhibition of Hepatitis C virus 1a NS5A Q30K mutant. Further details: species or system Hepatitis C virus subtype 1a.
Data set [10] has as its target T1, Nonstructural protein 5A. The experiment in a line: Inhibition of Hepatitis C virus 1a NS5A Q30R mutant. Set-up: species or system Hepatitis C virus subtype 1a.
A short description of data set [11]: Oral bioavailability in Sprague-Dawley rat at 3 mg/kg. To be noted: in vivo. In kind it is ADME, organism-based.

≈ marks a conversion by molar mass, not a printed value.

By EC50 is commonly meant the concentration giving half of the maximal effect. Lower therefore signals a more potent agent. The term Papp denotes a coefficient for how fast a substance crosses the barrier. The term solubility denotes the concentration that dissolves in the medium under given conditions. High values mean much dissolved substance, low ones little dissolved substance. `COC1CCC(C(=O)N[C@H]2CC[C@H](c3ccc(-c4c[nH]c([C@@H]5CCCN5C(=O)[C@H](NC(=O)N5CC[C@@H](NC(=O)OCC6CCCCC6)C5)c5ccccc5)n4)cc3)CC2)CC1` (stereo not given in full): the 50% effective concentration (EC50) at Nonstructural protein 5A [1] worked out at 0.039 nM; at Nonstructural protein 5A [2] it was 0.016 nM. Moreover, in [3], the Papp was 0.23 ×10⁻⁶ cm/s. Moreover, the solubility in data set [4] is 108 µM (≈ 90.3 µg/mL).

Consider `COC1CCN(C(=O)N[C@H]2CC[C@H](c3ccc(-c4c[nH]c([C@@H]5CCCN5C(=O)[C@H](NC(=O)N5CC[C@@H](NC(=O)OCc6ccccc6)C5)c5ccccc5)n4)cc3)CC2)CC1`, for which the results for the EC50 at Nonstructural protein 5A [1] and on Nonstructural protein 5A [2] were 0.15 nM and 0.041 nM, respectively. Moreover, in [3], the Papp is below 0.1 ×10⁻⁶ cm/s. In data set [4], this molecule gave a solubility of 222 µM (≈ 184 µg/mL).

For the molecule `COC(=O)N[C@H](C(=O)N1CCC[C@H]1c1ncc(-c2ccc(-c3ccc(-c4cnc([C@@H]5CCCN5C(=O)[C@@H](NC(=O)OC)C(C)C)[nH]4)cc3)cc2)[nH]1)C(C)C` [DACLATASVIR], the concentration giving a half-maximal response (EC50) came out at 0.071 nM at Nonstructural protein 5A [5]; 1260 nM at Nonstructural protein 5A [6]; 0.146 nM at Nonstructural protein 5A [7]; 0.05 nM at Nonstructural protein 5A [8]; 1230 nM in [9]; 61 nM on Nonstructural protein 5A [10].

The bioavailability is dose-corrected exposure relative to a reference, in per cent. Low readings indicate poor availability, high ones good availability. `O=C(N[C@@H]1CCN(C(=O)N[C@@H](C(=O)N2CCC[C@H]2c2nc(-c3ccc([C@H]4CC[C@H](NC(=O)c5cnccn5)CC4)cc3)c[nH]2)c2ccccc2)C1)OCC1CCCCC1`: the 50% effective concentration (EC50) at Nonstructural protein 5A [1] was 0.35 nM; on Nonstructural protein 5A [2], 0.0065 nM. Further, the bioavailability in [11] was determined as 4.9%. The Papp in data set [3] is 0.85 ×10⁻⁶ cm/s. Moreover, the concentration in solution in data set [4] (solubility) was 76 µM (≈ 61 µg/mL).

Regarding `CC(C)(C)C#CCOC(=O)N[C@@H]1CCN(C(=O)N[C@@H](C(=O)N2CCC[C@H]2c2nc(-c3ccc([C@H]4CC[C@H](NC(=O)c5cnc(CO)cn5)CC4)cc3)c[nH]2)c2ccccc2)C1`, the EC50 on Nonstructural protein 5A [1] was 0.059 nM; at Nonstructural protein 5A [5], below 0.01 nM; at Nonstructural protein 5A [2], 0.013 nM; at Nonstructural protein 5A [6] it was 15 nM; at Nonstructural protein 5A [7], below 0.01 nM; in [9], 17 nM. The EC50 on Nonstructural protein 5A [10] was determined as 0.18 nM. The molecule further had a bioavailability in data set [11] of 32%. In addition, the apparent permeability (Papp) in [3] came to 1 ×10⁻⁶ cm/s. The molecule also returned a solubility in data set [4] of 132 µM (≈ 110 µg/mL).

In the case of `CC(C)(C)C#CCOC(=O)N[C@@H]1CCN(C(=O)N[C@@H](C(=O)N2CCC[C@H]2c2nc(-c3ccc([C@H]4CC[C@H](NC(=O)c5cnccn5)CC4)cc3)c[nH]2)c2ccccc2)C1`, the 50% effective concentration (EC50) is 0.13 nM at Nonstructural protein 5A [1] and below 0.01 nM at Nonstructural protein 5A [2]. The molecule also came in with a bioavailability in [11] of 5.3%. Further, the Papp in data set [3] was found to be 1.1 ×10⁻⁶ cm/s. In [4], this molecule gave a solubility of 142 µM (≈ 114 µg/mL).

Regarding `CCCC#CCOC(=O)N[C@@H]1CCN(C(=O)N[C@@H](C(=O)N2CCC[C@H]2c2nc(-c3ccc([C@H]4CC[C@H](NC(=O)c5cnccn5)CC4)cc3)c[nH]2)c2ccccc2)C1`, the 50% effective concentration (EC50) on Nonstructural protein 5A [1] stood at 0.27 nM; on Nonstructural protein 5A [2], 0.013 nM. Besides, the Papp in [3] came out at 1.7 ×10⁻⁶ cm/s. Moreover, in [4], the concentration in solution (solubility) came to 135 µM (≈ 106 µg/mL).

On to `CC#CCCOC(=O)N[C@@H]1CCN(C(=O)N[C@@H](C(=O)N2CCC[C@H]2c2nc(-c3ccc([C@H]4CC[C@H](NC(=O)c5cnccn5)CC4)cc3)c[nH]2)c2ccccc2)C1`, for which the values for the concentration for a half-maximal effect (EC50) on Nonstructural protein 5A [1] and at Nonstructural protein 5A [2] were 3.4 nM and below 0.01 nM, respectively. Further, the Papp in data set [3] worked out at 2.1 ×10⁻⁶ cm/s. Besides, the concentration in solution in data set [4] (solubility) came to 352 µM (≈ 272 µg/mL).

For the molecule `COC1CCC(C(=O)N[C@H]2CC[C@H](c3ccc(-c4c[nH]c([C@@H]5CCCN5C(=O)[C@H](NC(=O)N5CC[C@@H](NC(=O)OCc6ccccc6)C5)c5ccccc5)n4)cc3)CC2)CC1` (stereo not given in full), the EC50 was 0.17 nM at Nonstructural protein 5A [1] and 0.019 nM on Nonstructural protein 5A [2]. This molecule yielded a bioavailability in data set [11] of 1.4%. In [3], the Papp was below 0.1 ×10⁻⁶ cm/s. Also, the concentration in solution in data set [4] (solubility) was 193 µM (≈ 160 µg/mL).

On to `CC(C)C#CCOC(=O)N[C@@H]1CCN(C(=O)N[C@@H](C(=O)N2CCC[C@H]2c2nc(-c3ccc([C@H]4CC[C@H](NC(=O)c5cnccn5)CC4)cc3)c[nH]2)c2ccccc2)C1`, for which the EC50 on Nonstructural protein 5A [1] was 0.18 nM; at Nonstructural protein 5A [2], below 0.01 nM. In data set [11], this molecule showed a bioavailability of 10%. Further, the apparent permeability (Papp) in data set [3] was determined as 1.6 ×10⁻⁶ cm/s. The molecule also showed a solubility in data set [4] of 246 µM (≈ 193 µg/mL).

For the molecule `CCCCCOC(=O)N[C@@H]1CCN(C(=O)N[C@@H](C(=O)N2CCC[C@H]2c2nc(-c3ccc([C@H]4CC[C@H](NC(=O)c5cnccn5)CC4)cc3)c[nH]2)c2ccccc2)C1`, the results for the EC50 at Nonstructural protein 5A [1] and on Nonstructural protein 5A [2] were 0.97 nM and 0.0056 nM, respectively. In data set [11], this molecule showed a bioavailability of 11%. Besides, the Papp in data set [3] stood at 3 ×10⁻⁶ cm/s. For the same molecule, in [4], the solubility came out at 197 µM (≈ 153 µg/mL).

`CC#CCOC(=O)N[C@@H]1CCN(C(=O)N[C@@H](C(=O)N2CCC[C@H]2c2nc(-c3ccc([C@H]4CC[C@H](NC(=O)c5cnccn5)CC4)cc3)c[nH]2)c2ccccc2)C1`: the EC50 was determined as 2.1 nM at Nonstructural protein 5A [1] and 0.028 nM on Nonstructural protein 5A [2]. Further, the Papp in data set [3] worked out at 2.1 ×10⁻⁶ cm/s. In addition, the concentration in solution in [4] (solubility) came to 462 µM (≈ 350 µg/mL).

Regarding `CCC#CCOC(=O)N[C@@H]1CCN(C(=O)N[C@@H](C(=O)N2CCC[C@H]2c2nc(-c3ccc([C@H]4CC[C@H](NC(=O)c5cnccn5)CC4)cc3)c[nH]2)c2ccccc2)C1`, the concentration for a half-maximal effect (EC50) at Nonstructural protein 5A [1] was found to be 0.39 nM; at Nonstructural protein 5A [2] it was 0.018 nM. Further, the apparent permeability (Papp) in data set [3] turned out to be 3.1 ×10⁻⁶ cm/s. Moreover, in [4], the concentration in solution (solubility) was 336 µM (≈ 259 µg/mL).

Turning to `CC(C)C#CCOC(=O)N[C@@H]1CCN(C(=O)N[C@@H](C(=O)N2CCC[C@H]2c2nc(-c3ccc([C@H]4CC[C@H](NC(=O)c5cnc(CO)cn5)CC4)cc3)c[nH]2)c2ccccc2)C1`, the 50% effective concentration (EC50) at Nonstructural protein 5A [1] came to 0.12 nM; on Nonstructural protein 5A [2], 0.017 nM. Also, the bioavailability in data set [11] was found to be 18%. Further, the Papp in [3] worked out at 1.4 ×10⁻⁶ cm/s. The solubility in data set [4] came to 190 µM (≈ 155 µg/mL).
